According to patent publication US12485119B2, “Methods of treating pulmonary arterial hypertension” (ACTELION PHARMACEUTICALS LTD, priority 2019, dated 2025):

Assays:
[1] = test system: newly diagnosed, treatment-naïve subjects with PAH
Description: The following safety endpoints will be used: • Treatment-emergent AEs. • AEs leading to premature discontinuation of any of the 3 study treatments. • Treatment-emergent SAEs. • Treatment-emergent deaths. • Treatment-emergent marked laboratory abnormalities. • Change from baseline in laboratory variables. • Change from baseline in vital signs.
The safety endpoints will be analyzed for the following time periods: • From Day 1 until EOMOP. • From Day 1 until start of double-blind treatment (selexipag/placebo). • From start until discontinuation of macitentan study treatment (or until EOMOP, whichever is first)+30 days safety follow up. • From start until discontinuation of tadalafil study treatment (or until EOMOP, whichever is first)+30 days safety follow up. • From start until discontinuation of double-blind treatment (or until EOMOP, whichever is first)+30 days safety follow up. • From EOMOP until EOT plus 30 days safety follow-up. • The 30 days safety follow-up.

[2] = test system: newly diagnosed, treatment-naïve subjects with PAH; assay: Exposure to study treatments, individual maintenance dose and maximum tolerated dose; format: in vivo, human; conditions: up to EOMOP; Safety Set
Experimental: The starting dose of double-blind selexipag or placebo on Day 15±3 is 200 μg twice daily (in the morning and in the evening). The dose is up-titrated in increments of 200 μg twice daily, usually at weekly intervals (see Table 1), until either a maximum dose of 1600 μg twice daily is reached or adverse pharmacological effects that cannot be tolerated or medically managed are experienced, whichever is first. In the event of adverse effects typical of prostanoid therapy, it is recommended not to discontinue double-blind treatment because these effects are usually transient or manageable with symptomatic treatment. If a dose that cannot be tolerated is reached, the dose should be reduced to the previous dose level.

[3] = risk TEAEs (EU Uptravi RMP) up to EOMOP

`CC(C)N(CCCCOCC(=O)NS(C)(=O)=O)c1cnc(-c2ccccc2)c(-c2ccccc2)n1` [Selexipag, 2-{4-[(5,6-diphenylpyrazin-2-yl)(propan-2-yl)amino]butoxy}-N-(methanesulfonyl)acetamide] was tested, and the “Tolerability as part of the initial triple therapy regimen” value ([1]; in vivo) was “well-tolerated”, the “Bleeding events: PT Blood loss anaemia, %” value [1, 3] was “(0.8) %” and the “Bleeding events: PT Conjunctival haemorrhage, %” value [1, 3] was “(0.8) %”. The “Bleeding events: PT Contusion, %” value [1, 3] was “(0.8) %”, the “Bleeding events: PT Epistaxis, %” value [1, 3] was “(9.2) %” and the “Bleeding events: PT Gastrointestinal haemorrhage, %” value [1, 3] was “(3.4) %”. For the same compound, the “Bleeding events: PT Gastrointestinal polyp haemorrhage, %” value [1, 3] was “(0.8) %”, the “Bleeding events: PT Gingival bleeding, %” value [1, 3] was “(0.8) %” and the “Bleeding events: PT Haematochezia, %” value [1, 3] was “(0.8) %”. The “Bleeding events: PT Haematoma, %” value [1, 3] was “(1.7) %”, the “Bleeding events: PT Haemoptysis, %” value [1, 3] was “(0.8) %” and the “Bleeding events: PT Haemorrhoidal haemorrhage, %” value [1, 3] was “(0.8) %”. The “Bleeding events: PT Hereditary haemorrhagic telangiectasia, %” value [1, 3] was “(0.8) %”, the “Bleeding events: PT Melaena, %” value [1, 3] was “(0.8) %” and the “Bleeding events: PT Menorrhagia, %” value [1, 3] was “(0.8) %”. The “Bleeding events: PT Metrorrhagia, %” value [1, 3] was “(1.7) %”, the “Bleeding events: PT Upper gastrointestinal haemorrhage, %” value [1, 3] was “(1.7) %” and the “Bleeding events: PT Vaginal haemorrhage, %” value [1, 3] was “(0.8) %”. The “Bleeding events: PT Vascular rupture, %” value [1, 3] was “(0.8) %”, the “GI intussusception risk: PT Small intestinal obstruction, %” value [1, 3] was “(0.8) %” and the “MACE: PT Transient ischaemic attack, %” value [1, 3] was “(0.8) %”. The “Medication errors: PT Accidental overdose, %” value [1, 3] was “(0.8) %”, the “Ophthalmological risk: PT Blindness, %” value [1, 3] was “(0.8) %” and the “Ophthalmological risk: PT Photopsia, %” value [1, 3] was “(0.8) %”. The “Ophthalmological risk: PT Retinal vasculitis, %” value [1, 3] was “(0.8) %”, the “Ophthalmological risk: PT Vision blurred, %” value [1, 3] was “(1.7) %” and the “Ophthalmological risk: PT Vitreous floaters, %” value [1, 3] was “(0.8) %”. The “PVOD/pulmonary oedema risk: PT Pulmonary oedema, %” value [1, 3] was “(0.8) %”, the “PVOD/pulmonary oedema risk: PT Pulmonary veno-occlusive disease, %” value [1, 3] was “(0.8) %” and the “Renal risk: PT Acute kidney injury, %” value [1, 3] was “(3.4) %”. The “Renal risk: PT Blood creatinine increased, %” value [1, 3] was “(2.5) %”, the “Renal risk: PT Glomerular filtration rate decreased, %” value [1, 3] was “(0.8) %” and the “Renal risk: PT Prerenal failure, %” value [1, 3] was “(0.8) %”. The “Renal risk: PT Renal failure, %” value [1, 3] was “(0.8) %”, the “Renal risk: PT Renal impairment, %” value [1, 3] was “(0.8) %” and the “Risk Anaemia (all PTs), %” value [1, 3] was “(25.2) %”. For the same compound, the “Risk Anaemia: PT Anaemia, %” value [1, 3] was “(12.6) %”, the “Risk Anaemia: PT Blood loss anaemia, %” value [1, 3] was “(0.8) %” and the “Risk Anaemia: PT Haematocrit decreased, %” value [1, 3] was “(0.8) %”. The “Risk Anaemia: PT Haemoglobin decreased, %” value [1, 3] was “(6.7) %”, the “Risk Anaemia: PT Iron deficiency anaemia, %” value [1, 3] was “(6.7) %” and the “Risk Anaemia: PT Microcytic anaemia, %” value [1, 3] was “(1.7) %”. For the same compound, the “Risk Anaemia: PT Red blood cell count decreased, %” value [1, 3] was “(0.8) %”, the “Risk Bleeding events (all PTs), %” value [1, 3] was “(21.8) %” and the “Risk Gastrointestinal disturbances denoting intestinal intussusception (manifested as ileus or obstruction), %” value [1, 3] was “(0.8) %”. The “Risk Hypotension (all PTs), %” value [1, 3] was “(8.4) %”, the “Risk Hypotension: PT Hypotension, %” value [1, 3] was “(7.6) %” and the “Risk Hypotension: PT Orthostatic hypotension, %” value [1, 3] was “(0.8) %”. The “Risk Light-dependent non-melanoma skin malignancies (all PTs), %” value [1, 3] was “(0.8) %”, the “Risk Major adverse cardiovascular events (MACE) (all PTs), %” value [1, 3] was “(0.8) %” and the “Risk Medication errors (all PTs), %” value [1, 3] was “(0.8) %”. For the same compound, the “Risk Ophthalmological effects associated to retinal vascular system (all PTs), %” value [1, 3] was “(4.2) %”, the “Risk Pulmonary venoocclusive disease associated with pulmonary oedema (all PTs), %” value [1, 3] was “(1.7) %” and the “Risk Renal function impairment/acute renal failure (all PTs), %” value [1, 3] was “(8.4) %”. The “Skin malignancies risk: PT Basal cell carcinoma, %” value [1, 3] was “(0.8) %”, the “Subjects with At Least One Identified or Potential Risk AE, %” value [1, 3] was “(49.6) %” and the “Maximum tolerated dose of double-blind treatment (b.i.d), Median” value [2] was 1000.0 µg.
